Data taken from US20220281841A1, “ETHYNYLHETEROCYCLES AS RHO-ASSOCIATED COILED-COIL KINASE (ROCK) INHIBITORS” (Angion Biomedica Corp., priority 2019, published 2022).
Structures can show the parent of a compound that is named as a salt.

What was measured:
ROCK1 = molecular target: T1, ROCK1 (Homo sapiens, UniProt Q13464); assay: ROCK1 kinase binding affinity, DiscoverX KINOMEscan KdELECT; details: equilibrium dissociation constant, 11-point 3-fold dilution series
T1 construct: purchased DiscoverX (KINOMEscan KdELECT service); host or cells: E. coli BL21-derived (T7 phage) or HEK-293
T1 sequence (Q13464 whole entry): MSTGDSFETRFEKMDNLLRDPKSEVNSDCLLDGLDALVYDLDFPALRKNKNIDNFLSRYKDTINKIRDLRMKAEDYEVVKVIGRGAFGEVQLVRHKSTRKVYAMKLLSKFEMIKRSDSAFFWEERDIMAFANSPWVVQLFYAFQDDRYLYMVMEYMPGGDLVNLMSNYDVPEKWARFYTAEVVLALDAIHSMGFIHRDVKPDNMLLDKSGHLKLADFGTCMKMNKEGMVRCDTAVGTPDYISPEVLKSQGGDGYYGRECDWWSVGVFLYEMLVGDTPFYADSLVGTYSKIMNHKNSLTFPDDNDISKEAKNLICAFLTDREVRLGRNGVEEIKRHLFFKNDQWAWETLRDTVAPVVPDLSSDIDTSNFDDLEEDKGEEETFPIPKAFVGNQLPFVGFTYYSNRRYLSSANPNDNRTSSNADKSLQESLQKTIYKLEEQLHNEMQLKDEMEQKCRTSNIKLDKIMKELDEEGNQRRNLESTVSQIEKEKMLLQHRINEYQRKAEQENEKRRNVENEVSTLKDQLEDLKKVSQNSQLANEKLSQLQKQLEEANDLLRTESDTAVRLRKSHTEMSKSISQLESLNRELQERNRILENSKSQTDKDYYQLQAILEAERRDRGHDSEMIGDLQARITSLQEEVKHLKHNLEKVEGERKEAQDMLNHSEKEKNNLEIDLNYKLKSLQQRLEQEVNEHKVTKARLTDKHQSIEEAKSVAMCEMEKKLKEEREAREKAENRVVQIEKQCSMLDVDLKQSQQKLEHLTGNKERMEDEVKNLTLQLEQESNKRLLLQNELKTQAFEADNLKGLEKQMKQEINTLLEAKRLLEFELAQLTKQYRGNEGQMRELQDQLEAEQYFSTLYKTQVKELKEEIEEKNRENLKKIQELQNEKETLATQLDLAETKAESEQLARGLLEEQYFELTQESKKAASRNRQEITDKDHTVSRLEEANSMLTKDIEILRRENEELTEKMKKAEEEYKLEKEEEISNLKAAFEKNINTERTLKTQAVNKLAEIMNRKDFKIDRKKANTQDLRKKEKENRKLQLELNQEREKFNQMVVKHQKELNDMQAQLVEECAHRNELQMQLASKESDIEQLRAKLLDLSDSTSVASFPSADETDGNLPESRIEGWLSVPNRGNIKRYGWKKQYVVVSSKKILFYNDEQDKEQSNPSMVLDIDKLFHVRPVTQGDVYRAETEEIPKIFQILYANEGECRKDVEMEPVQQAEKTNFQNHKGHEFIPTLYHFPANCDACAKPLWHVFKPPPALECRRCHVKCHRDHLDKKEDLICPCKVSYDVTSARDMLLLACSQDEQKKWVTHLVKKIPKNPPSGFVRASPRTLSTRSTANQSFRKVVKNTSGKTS
Procedure: (§1) 1. ROCK1 and ROCK2 kinase assays: The ROCK1 and ROCK2 kinase binding affinities of compounds in this invention were determined by DiscoverX's KINOMEscan™ KdELECT technology (https://www.discoverx.com/kinomescan-elect-kinase-screening-and-profiling-services): Kinase-tagged T7 phage strains were prepared in an E. coli host derived from the BL21 strain. E. coli were grown to log-phase and infected with T7 phage and incubated with shaking at 32° C. until lysis. The lysates were centrifuged and filtered to remove cell debris. The remaining kinases were produced in HEK-293 cells and subsequently tagged with DNA for qPCR detection. Streptavidin-coated magnetic beads were treated with biotinylated small molecule ligands for 30 minutes at room temperature to generate affinity resins for kinase assays. The liganded beads were blocked with excess biotin and washed with blocking buffer (SeaBlock (Pierce), 1% BSA, 0.05% Tween 20, 1 mM DTT) to remove unbound ligand and to reduce nonspecific binding. […] Test compounds were prepared as 111X stocks in 100% DMSO. Kds were determined using an 11-point 3-fold compound dilution series with three DMSO control points. […] The compounds were then diluted directly into the assays such that the final concentration of DMSO was 0.9%. All reactions performed in polypropylene 384-well plate. Each was a final volume of 0.02 ml. […] The kinase concentration in the eluates was measured by qPCR.

ROCK2 = molecular target: T2, ROCK2 (Homo sapiens, UniProt O75116); assay: ROCK2 kinase binding affinity, DiscoverX KINOMEscan KdELECT; details: for ROCK 2 Selectivity: ROCK2 over ROCK1, from Kd values, N/C = not calculated; for Kd: equilibrium dissociation constant, 11-point 3-fold dilution series, read-out: Kd (μM) ROCK2
T2 construct: purchased DiscoverX (KINOMEscan KdELECT service); host or cells: E. coli BL21-derived (T7 phage) or HEK-293
T2 sequence (O75116 whole entry): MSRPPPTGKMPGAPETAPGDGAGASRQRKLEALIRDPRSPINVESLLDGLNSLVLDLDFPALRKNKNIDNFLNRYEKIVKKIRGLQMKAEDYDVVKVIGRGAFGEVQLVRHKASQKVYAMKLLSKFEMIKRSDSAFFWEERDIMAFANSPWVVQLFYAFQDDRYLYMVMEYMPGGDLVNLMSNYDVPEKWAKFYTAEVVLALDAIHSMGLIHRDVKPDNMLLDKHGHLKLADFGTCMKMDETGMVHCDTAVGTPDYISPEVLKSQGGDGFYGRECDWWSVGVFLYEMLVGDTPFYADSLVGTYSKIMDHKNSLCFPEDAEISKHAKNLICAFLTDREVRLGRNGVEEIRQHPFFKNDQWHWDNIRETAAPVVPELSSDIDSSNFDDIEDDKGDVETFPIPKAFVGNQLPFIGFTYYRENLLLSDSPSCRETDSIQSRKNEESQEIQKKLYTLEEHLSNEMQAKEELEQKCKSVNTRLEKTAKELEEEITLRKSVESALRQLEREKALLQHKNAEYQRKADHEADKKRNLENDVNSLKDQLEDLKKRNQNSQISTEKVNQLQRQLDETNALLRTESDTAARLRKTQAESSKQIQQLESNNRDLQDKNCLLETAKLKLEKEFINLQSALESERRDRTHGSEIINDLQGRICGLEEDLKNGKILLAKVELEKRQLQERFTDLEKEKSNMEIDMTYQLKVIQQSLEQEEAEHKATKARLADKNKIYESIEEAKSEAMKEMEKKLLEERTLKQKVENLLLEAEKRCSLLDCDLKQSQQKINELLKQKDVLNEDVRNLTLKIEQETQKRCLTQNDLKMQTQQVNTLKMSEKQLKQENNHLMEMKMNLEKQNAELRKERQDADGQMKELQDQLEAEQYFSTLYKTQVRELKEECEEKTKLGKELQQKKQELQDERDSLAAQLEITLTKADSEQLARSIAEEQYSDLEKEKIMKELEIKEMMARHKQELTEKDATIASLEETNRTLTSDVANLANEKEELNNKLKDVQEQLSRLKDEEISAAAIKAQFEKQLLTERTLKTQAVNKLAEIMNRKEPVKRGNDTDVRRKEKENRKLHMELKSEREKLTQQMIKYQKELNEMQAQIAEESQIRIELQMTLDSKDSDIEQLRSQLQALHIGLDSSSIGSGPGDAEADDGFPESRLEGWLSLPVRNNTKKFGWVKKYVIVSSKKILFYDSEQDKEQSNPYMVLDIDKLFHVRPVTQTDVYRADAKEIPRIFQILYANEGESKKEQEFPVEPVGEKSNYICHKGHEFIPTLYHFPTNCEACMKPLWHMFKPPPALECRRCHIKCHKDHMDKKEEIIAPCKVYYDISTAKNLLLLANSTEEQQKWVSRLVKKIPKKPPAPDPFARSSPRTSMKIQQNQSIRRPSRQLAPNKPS
Procedure: as §1

Row | Compound | Kd (ROCK1) [µM] | ROCK 2 Selectivity (ROCK2) | Kd (ROCK2) [µM]
1 | Fc1ccc2c(c1)CN(c1nccc(-c3nccc(C#Cc4ccc5[nH]nc(F)c5c4)n3)n1)C2 [Ex. 31, 3-Fluoro-5-((2′-(5-fluoroisoindolin-2-yl)-[2,4′-bipyrimidin]-4-yl)ethynyl)-1H-indazole] | > 30 | >411 | 0.073
2 | Fc1ccc2c(c1)CN(c1nccc(-c3nccc(C#Cc4cnc5[nH]ncc5c4)n3)n1)C2 [Ex. 32, 5-((2′-(5-Fluoroisoindolin-2-yl)-[2,4′-bipyrimidin]-4-yl)ethynyl)-1H-pyrazolo[3,4-b]pyridine] | > 30 | >103 | 0.29
3 | Fc1ccc2c(c1)CN(c1ccnc(-c3ccnc(C#Cc4ccc5[nH]ncc5c4)n3)n1)C2 [Ex. 34, 5-((4-(5-Fluoroisoindolin-2-yl)-[2,4′-bipyrimidin]-2′-yl)ethynyl)-1H-indazole] | 0.089 | 2.87 | 0.031
4 | COCCN1CCN(c2cc3c(cn2)CN(c2nccc(-c4nccc(C#Cc5ccc6[nH]ncc6c5)n4)n2)C3)CC1 [Ex. 36, 5-((2′-(6-(4-(2-Methoxyethyl)piperazin-1-yl)-1,3-dihydro-2H-pyrrolo[3,4-c]pyridin-2-yl)-[2,4′-bipyrimidin]-4-yl)ethynyl)-1H-indazole trifluoroacetate salt] | 0.069 | 7.26 | 0.0095
5 | COCCOc1cc2c(cn1)CN(c1nccc(-c3nccc(C#Cc4ccc5[nH]ncc5c4)n3)n1)C2 [Ex. 37, 5-((2′-(6-(2-Methoxyethoxy)-1,3-dihydro-2H-pyrrolo[3,4-c]pyridin-2-yl)-[2,4′-bipyrimidin]-4-yl)ethynyl)-1H-indazole] | 5.7 | 51.8 | 0.11
6 | CN(C)CCOc1ccc2c(c1)CN(c1nccc(-c3nccc(C#Cc4ccc5[nH]ncc5c4)n3)n1)C2 [Ex. 39, 2-((2-(4-((1H-Indazol-5-yl)ethynyl)-[2,4′-bipyrimidin]-2′-yl)isoindolin-5-yl)oxy)-N,N-dimethylethanamine] | 0.67 | 25.8 | 0.026
7 | FC(F)(F)c1ccc2c(c1)CN(c1nccc(-c3nccc(C#Cc4ccc5[nH]ncc5c4)n3)n1)C2 [Ex. 45, 5-((2′-(5-(Trifluoromethyl)isoindolin-2-yl)-[2,4′-bipyrimidin]-4-yl)ethynyl)-1H-indazole trifluoroacetate] | 0.1 | 90.9 | 0.0011
8 | O=C(COc1ccc2c(c1)CN(c1nccc(-c3nccc(C#Cc4ccc5[nH]ncc5c4)n3)n1)C2)NC1CC1 [Ex. 46, 2-((2-(4-((1H-Indazol-5-yl)ethynyl)-[2,4′-bipyrimidin]-2′-yl)isoindolin-5-yl)oxy)-N-cyclopropylacetamide trifluoroacetate] | 0.13 | 56.5 | 0.0023
9 | C(#Cc1ccnc(-c2ccnc(N3CC(c4ccccc4)C3)n2)n1)c1ccc2[nH]ncc2c1 [Ex. 48, 5-((2′-(3-Phenylazetidin-1-yl)-[2,4′-bipyrimidin]-4-yl)ethynyl)-1H-indazole trifluoroacetate] | 5.5 | 36.7 | 0.15
10 | COC(=O)c1ccc(C2CN(c3nccc(-c4nccc(C#Cc5ccc6[nH]ncc6c5)n4)n3)C2)cc1 [Ex. 49, Methyl 4-(1-(4-((1H-indazol-5-yl)ethynyl)-[2,4′-bipyrimidin]-2′-yl)azetidin-3-yl)benzoate trifluoroacetate] | > 30 | >120 | 0.25
11 | N#Cc1ccc(C2CN(c3nccc(-c4nccc(C#Cc5ccc6[nH]ncc6c5)n4)n3)C2)cc1 [Ex. 50, 4-(1-(4-((1H-Indazol-5-yl)ethynyl)-[2,4′-bipyrimidin]-2′-yl)azetidin-3-yl)benzonitrile trifluoroacetate] | 5.4 | 45 | 0.12
12 | O=C(O)c1ccc(C2CN(c3nccc(-c4nccc(C#Cc5ccc6[nH]ncc6c5)n4)n3)C2)cc1 [Ex. 51, 4-(1-(4-((1H-Indazol-5-yl)ethynyl)-[2,4′-bipyrimidin]-2′-yl)azetidin-3-yl)benzoic acid] | 11 | 73 | 0.15
13 | C(#Cc1ccnc(-c2ccnc(N3CCN(c4ccccc4)CC3)n2)n1)c1ccc2[nH]ncc2c1 [Ex. 52, 5-((2′-(4-Phenylpiperazin-1-yl)-[2,4′-bipyrimidin]-4-yl)ethynyl)-1H-indazole] | 9 | 26.5 | 0.34
14 | Fc1ccc(N2CCN(c3nccc(-c4nccc(C#Cc5ccc6[nH]ncc6c5)n4)n3)CC2)cc1 [Ex. 53, 5-((2′-(4-(4-Fluorophenyl)piperazin-1-yl)-[2,4′-bipyrimidin]-4-yl)ethynyl)-1H-indazole] | 4.7 | 58.8 | 0.08
15 | CCCN1CCN(c2nccc(-c3nccc(C#Cc4ccc5[nH]ncc5c4)n3)n2)CC1 [Ex. 54, 5-((2′-(4-Propylpiperazin-1-yl)-[2,4′-bipyrimidin]-4-yl)ethynyl)-1H-indazole trifluoroacetate] | 4.6 | 10.2 | 0.45
16 | C(#Cc1ccnc(-c2ccnc(N3CCC(c4ccccc4)CC3)n2)n1)c1ccc2[nH]ncc2c1 [Ex. 55, 5-((2′-(4-Phenylpiperidin-1-yl)-[2,4′-bipyrimidin]-4-yl)ethynyl)-1H-indazole] | 26 | 28.9 | 0.9

More lines, now with the values ahead:

Row | Kd (ROCK1) [µM] | ROCK 2 Selectivity (ROCK2) | Kd (ROCK2) [µM] | Compound
17 | 0.77 | 132.8 | 0.0058 | Brc1ccc2c(c1)CN(c1nccc(-c3nccc(C#Cc4ccc5[nH]ncc5c4)n3)n1)C2 [Ex. 30, 5-((2′-(5-Bromoisoindolin-2-yl)-[2,4′-bipyrimidin]-4-yl)ethynyl)-1H-indazole]
18 | > 30 | >44.1 | 0.68 | COc1ccc2c(c1)CN(c1nccc(-c3nccc(C#Cc4cnc5[nH]ncc5c4)n3)n1)C2 [Ex. 33, 5-((2′-(5-Methoxyisoindolin-2-yl)-[2,4′-bipyrimidin]-4-yl)ethynyl)-1H-pyrazolo[3,4-b]pyridine]
19 | > 30 | >417 | 0.072 | C(#Cc1ccnc(-c2ccnc(N3Cc4c[nH]nc4C3)n2)n1)c1ccc2[nH]ncc2c1 [Ex. 35, 5-((2′-(2,6-Dihydropyrrolo[3,4-c]pyrazol-5(4H)-yl)-[2,4′-bipyrimidin]-4-yl)ethynyl)-1H-indazole]
20 | 2.8 | 4.37 | 0.64 | CN(C)C(=O)COc1cc2c(cn1)CN(c1nccc(-c3nccc(C#Cc4ccc5[nH]ncc5c4)n3)n1)C2 [Ex. 38, 2-((2-(4-((1H-indazol-5-yl)ethynyl)-[2,4′-bipyrimidin]-2′-yl)-2,3-dihydro-1H-pyrrolo[3,4-c]pyridin-6-yl)oxy)-N,N-dimethylacetamide]
21 | 12 | 144 | 0.083 | CN1CCN(c2ccc3c(c2)CN(c2nccc(-c4nccc(C#Cc5ccc6[nH]ncc6c5)n4)n2)C3)CC1 [Ex. 40, 5-((2′-(5-(4-Methylpiperazin-1-yl)isoindolin-2-yl)-[2,4′-bipyrimidin]-4-yl)ethynyl)-1H-indazole]
22 | 1.1 | 45.8 | 0.024 | CC1CN(c2ccc3c(c2)CN(c2nccc(-c4nccc(C#Cc5ccc6[nH]ncc6c5)n4)n2)C3)CCO1 (stereo not drawn) [Ex. 41, 4-(2-(4-((1H-Indazol-5-yl)ethynyl)-[2,4′-bipyrimidin]-2′-yl)isoindolin-5-yl)-2-methylmorpholine]
23 | 0.64 | 7.71 | 0.083 | C(#Cc1ccnc(-c2ccnc(N3Cc4ccc(OCCN5CCOCC5)cc4C3)n2)n1)c1ccc2[nH]ncc2c1 [Ex. 42, 4-(2-((2-(4-((1H-Indazol-5-yl)ethynyl)-[2,4′-bipyrimidin]-2′-yl)isoindolin-5-yl)oxy)ethyl)morpholine]
24 | > 30 | >273 | 0.11 | CN(C)C(=O)COc1ccc2c(c1)CN(c1nccc(-c3nccc(C#Cc4ccc5[nH]ncc5c4)n3)n1)C2 [Ex. 43, 2-((2-(4-((1H-Indazol-5-yl)ethynyl)-[2,4′-bipyrimidin]-2′-yl)isoindolin-5-yl)oxy)-N,N-dimethylacetamide]
25 | 0.075 | 32.6 | 0.0023 | CNC(=O)COc1ccc2c(c1)CN(c1nccc(-c3nccc(C#Cc4ccc5[nH]ncc5c4)n3)n1)C2 [Ex. 44, 2-((2-(4-((1H-Indazol-5-yl)ethynyl)-[2,4′-bipyrimidin]-2′-yl)isoindolin-5-yl)oxy)-N-methylacetamide]
26 | 0.16 | 51.6 | 0.0031 | COCCOc1ccc2c(c1)CN(c1nccc(-c3nccc(C#Cc4ccc5[nH]ncc5c4)n3)n1)C2 [Ex. 47, 5-((2′-(5-(2-Methoxyethoxy)isoindolin-2-yl)-[2,4′-bipyrimidin]-4-yl)ethynyl)-1H-indazole]
